The target of one assay is T1, Zcchc11 enzyme (Homo sapiens, UniProt Q5TAX3).
T1 construct: made in house; host or cells: HEK293 cells (Zcchc11); E. coli Rosetta II (LIN28A)
T1 sequence (Q5TAX3 212-1420): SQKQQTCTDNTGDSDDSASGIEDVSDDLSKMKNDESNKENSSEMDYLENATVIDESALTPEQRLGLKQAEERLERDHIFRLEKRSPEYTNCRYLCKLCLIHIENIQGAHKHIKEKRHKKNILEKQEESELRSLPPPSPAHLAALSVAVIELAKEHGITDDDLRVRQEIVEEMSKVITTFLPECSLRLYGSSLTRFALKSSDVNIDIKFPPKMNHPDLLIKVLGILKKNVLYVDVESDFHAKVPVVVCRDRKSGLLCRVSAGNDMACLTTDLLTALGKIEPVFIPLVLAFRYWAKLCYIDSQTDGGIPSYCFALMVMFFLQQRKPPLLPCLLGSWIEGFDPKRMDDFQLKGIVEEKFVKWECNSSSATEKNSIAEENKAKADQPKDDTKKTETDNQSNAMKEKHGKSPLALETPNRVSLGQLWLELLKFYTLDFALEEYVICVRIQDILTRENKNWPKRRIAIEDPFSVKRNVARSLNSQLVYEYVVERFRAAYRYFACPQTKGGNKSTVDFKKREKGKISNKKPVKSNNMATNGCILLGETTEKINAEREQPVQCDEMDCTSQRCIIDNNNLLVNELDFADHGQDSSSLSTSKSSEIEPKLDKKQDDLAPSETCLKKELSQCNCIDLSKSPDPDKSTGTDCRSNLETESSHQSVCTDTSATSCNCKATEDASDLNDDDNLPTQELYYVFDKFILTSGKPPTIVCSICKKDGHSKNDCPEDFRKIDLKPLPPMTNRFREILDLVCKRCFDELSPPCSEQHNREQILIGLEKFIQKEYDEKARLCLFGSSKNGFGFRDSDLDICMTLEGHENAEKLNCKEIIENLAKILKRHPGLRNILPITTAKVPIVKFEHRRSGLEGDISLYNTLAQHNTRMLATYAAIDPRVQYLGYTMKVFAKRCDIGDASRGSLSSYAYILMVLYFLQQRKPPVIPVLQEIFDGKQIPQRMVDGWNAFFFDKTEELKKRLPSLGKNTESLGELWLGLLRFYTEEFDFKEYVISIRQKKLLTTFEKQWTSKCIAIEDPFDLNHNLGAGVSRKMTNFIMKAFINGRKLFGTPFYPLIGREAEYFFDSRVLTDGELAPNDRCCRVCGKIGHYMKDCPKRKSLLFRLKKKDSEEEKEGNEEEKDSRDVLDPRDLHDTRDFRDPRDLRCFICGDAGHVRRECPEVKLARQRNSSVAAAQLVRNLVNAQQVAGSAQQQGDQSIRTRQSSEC
The assay can be described thus: TUTase assay (Zcchc11 assay, Lin28a-dependent polyuridylation of pre-let-7). Conditions: LIN28A 10 nM, Zcchc11 0.2 nM, 5′-fluorescein pre-let-7 miRNA 2 nM, UTP 5 uM, room temperature, 30 minutes pre-incubation; read-out: Potency Lin28a-dep Z11 IC50. In kind it is biochemical. The essentials: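 Potency is measured as inhibition of LIN28A-driven U-tail addition to 2 nM pre-let-7 by 0.2 nM HEK293-derived Zcchc11 fragment with 5 uM UTP at room temperature. Tail growth appears as fluorescein quenching by an annealing rhodamine-A20 probe.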
For orientation: IC50 means the midpoint of a concentration-inhibition curve. In the case of `O=C(O)c1cn(-c2ccc(O)cc2F)c2cc(N3CCC[C@@H]3COc3ncccn3)c(F)cc2c1=O` [Example 22, (R)-6-fluoro-1-(2-fluoro-4-hydroxyphenyl)-4-oxo-7-(2-((pyrimidin-2-yloxy)methyl)pyrrolidin-1-yl)-1,4-dihydroquinoline-3-carboxylic acid], the IC50 fell in the range of 1 to 10 µM.
Take `CN(C)C1CN(c2ccc(-n3cc(C(=O)O)c(=O)c4cc(Cl)c(N5CCC(C)(C)C5COc5ncccc5Cl)cc43)cn2)C1` (stereo not shown) [Example 59, 6-chloro-7-(2-{[(3-chloropyridin-2-yl)oxy]methyl}-3,3-dimethylpyrrolidin-1-yl)-1-{6-[3-(dimethylamino)azetidin-1-yl]pyridin-3-yl}-4-oxoquinoline-3-carboxylic acid]: the IC50 is at most 1 µM.
For `CC1(n2cc(C(=O)O)c(=O)c3cc(Cl)c(N4CCC[C@@H]4COc4ncccc4Cl)c(F)c32)CC1` [Example 9, (R)-6-chloro-7-(2-(((3-chloropyridin-2-yl)oxy)methyl)pyrrolidin-1-yl)-8-fluoro-1-(1-methylcyclopropyl)-4-oxo-1,4-dihydroquinoline-3-carboxylic acid], the IC50 was in the range of 1 to 10 µM.

The assay is the same for the next values; noted with them: Lin28a-dependent Zcchc11 (Z11) TUTase activity; read-out: Potency Lin28a-dep Z11 IC50.
Turning to `O=C(O)c1cn(C2COC2)c2cc(N3CCC[C@@H]3COc3ccccn3)c(F)cc2c1=O` [Compound 163, (R)-6-fluoro-1-(oxetan-3-yl)-4-oxo-7-(2-((pyridin-2-yloxy)methyl)pyrrolidin-1-yl)-1,4-dihydro-quinoline-3-carboxylic acid], the concentration for half-maximal inhibition (IC50) was in the range of 1 to 10 µM.
For `CN(C)C1CN(c2ccc(-n3cc(C(=O)O)c(=O)c4cc(C#N)c(N5CCC[C@@H]5COc5ncccc5Cl)nc43)cn2)C1` [Compound 250, 7-[(2R)-2-[[(3-chloropyridin-2-yl)oxy]methyl]pyrrolidin-1-yl]-6-cyano-1-[6-[3-(dimethyl-amino)azetidin-1-yl]pyridin-3-yl]-4-oxo-1,8-naphthyridine-3-carboxylic acid], the IC50 is at most 1 µM.
On the same count and under the same terms, to `O=C(O)c1cn(-c2ccccc2)c2c(F)c(N3CCC[C@H]3COc3ccccn3)c(F)cc2c1=O` [a, (S)-6,8-difluoro-4-oxo-1-phenyl-7-(2-((pyridin-2-yloxy)methyl)pyrrolidin-1-yl)-1,4-dihydro-quinoline-3-carboxylic acid] belongs 10 to 50 µM; to `Cc1cccnc1OC[C@H]1CCCN1c1cc2c(cc1Cl)c(=O)c(C(=O)O)cn2-c1ccccc1` [Compound 103, (R)-6-chloro-7-(2-(((3-methyl-pyridin-2-yl)oxy)methyl)pyrrolidin-1-yl)-4-oxo-1-phenyl-1,4-dihydro-quinoline-3-carboxylic acid], at most 1 µM.
For `Cn1cc(-n2cc(C(=O)O)c(=O)c3cc(C#N)c(N4CCCC4COc4ncccc4F)cc32)cn1` (racemic) [Compound 245, rac-(R)-6-cyano-7-(2-(((3-fluoropyridin-2-yl)oxy)methyl)pyrrolidin-1-yl)-1-(1-methyl-1H-pyrazol-4-yl)-4-oxo-1,4-dihydro-quinoline-3-carboxylic acid], the IC50 is at most 1 µM.
For the compound `O=C(O)c1cn(-c2ccc(O)cc2F)c2cc(N3CCC[C@@H]3COc3ccncn3)c(F)cc2c1=O` [Compound 136, (R)-6-fluoro-1-(2-fluoro-4-hydroxy-phenyl)-4-oxo-7-(2-((pyrimidin-4-yloxy)methyl)pyrrolidin-1-yl)-1,4-dihydro-quinoline-3-carboxylic acid], the IC50 fell in the range of 1 to 10 µM.

The same assay, now with this note: Lin28a-dependent Zcchc11 (Z11) TUTase assay; read-out: Potency Lin28a-dep Z11 IC50.
As to `Nc1ccc(-n2cc(C(=O)O)c(=O)c3cc(Cl)c(N4CCC[C@@H]4COc4nc(OC5CC5)ccc4Cl)cc32)cn1` [Example 647, (R)-1-(6-aminopyridin-3-yl)-6-chloro-7-(2-(((3-chloro-6-cyclopropoxy-pyridin-2-yl)oxy)methyl)pyrrolidin-1-yl)-4-oxo-1,4-dihydroquinoline-3-carboxylic acid], the IC50 is at most 1 µM.
The same measure, in the same setting: next, `CN(C)C1CN(c2cc(-n3cc(C(=O)O)c(=O)c4cc(Cl)c(N5CCC[C@@H]5COc5ncccc5Cl)nc43)ccn2)C1` [Example 544, (R)-6-chloro-7-(2-(((3-chloropyridin-2-yl)oxy)methyl)pyrrolidin-1-yl)-1-(2-(3-(dimethylamino)azetidin-1-yl)pyridin-4-yl)-4-oxo-1,4-dihydro-1,8-naphthyridine-3-carboxylic acid]: at most 1 µM; `CN(C)C1CN(c2ccc(-n3cc(C(=O)O)c(=O)c4cc(F)c(N5CCC[C@@H]5COc5cc(O)ccn5)c(F)c43)cn2)C1` [Example 600, (R)-1-(6-(3-(dimethylamino)azetidin-1-yl)pyridin-3-yl)-6,8-difluoro-7-(2-(((4-hydroxypyridin-2-yl)oxy)methyl)pyrrolidin-1-yl)-4-oxo-1,4-dihydroquinoline-3-carboxylic acid]: at most 1 µM; `CN(C)C1CN(c2ccc(-n3cc(C(=O)O)c(=O)c4cc(Cl)c(N5C[C@@H](F)C[C@@H]5COc5ncccc5Cl)cc43)cn2)C1` [Example 464, 6-chloro-7-((2R,4S)-2-(((3-chloropyridin-2-yl)oxy)methyl)-4-fluoropyrrolidin-1-yl)-1-(6-(3-(dimethylamino)azetidin-1-yl)pyridin-3-yl)-4-oxo-1,4-dihydroquinoline-3-carboxylic acid]: at most 1 µM.
On the same count and under the same terms, next, `COc1ccc(Cl)c(OC[C@H]2CC(C)(O)CN2c2cc3c(cc2Cl)c(=O)c(C(=O)O)cn3-c2ccc(N3CC(N(C)C)C3)nc2)n1` (stereo partly drawn) [Example 643, 6-chloro-7-((2R)-2-(((3-chloro-6-methoxypyridin-2-yl)oxy)methyl)-4-hydroxy-4-methylpyrrolidin-1-yl)-1-(6-(3-(dimethylamino)azetidin-1-yl)pyridin-3-yl)-4-oxo-1,4-dihydroquinoline-3-carboxylic acid]: at most 1 µM.
For the compound `O=C(O)c1cn(-c2ccc(N3CCCC3=O)nc2)c2nc(N3CCC[C@@H]3COc3ncccc3Cl)c(Cl)cc2c1=O` [Example 525, (R)-6-chloro-7-(2-(((3-chloropyridin-2-yl)oxy)methyl)pyrrolidin-1-yl)-4-oxo-1-(6-(2-oxopyrrolidin-1-yl)pyridin-3-yl)-1,4-dihydro-1,8-naphthyridine-3-carboxylic acid], the IC50 was at most 1 µM.
With `O=C(O)c1cn(-c2cc3n(n2)CCNC3)c2cc(N3CCC[C@@H]3COc3ncccc3Cl)c(Cl)cc2c1=O` [Example 515, (R)-6-chloro-7-(2-(((3-chloropyridin-2-yl)oxy)methyl)pyrrolidin-1-yl)-4-oxo-1-(4,5,6,7-tetrahydropyrazolo [1,5-a]pyrazin-2-yl)-1,4-dihydroquinoline-3-carboxylic acid], the IC50 is at most 1 µM.
Still for that read-out and setting: next, `CO[C@H]1CCN(c2cc3c(cc2Cl)c(=O)c(C(=O)O)cn3-c2ccc(N3CC(N(C)C)C3)nc2)[C@H]1COc1ncccc1Cl` [Example 669, 6-chloro-7-((2S,3S)-2-(((3-chloropyridin-2-yl)oxy)methyl)-3-methoxypyrrolidin-1-yl)-1-(6-(3-(dimethylamino)azetidin-1-yl)pyridin-3-yl)-4-oxo-1,4-dihydroquinoline-3-carboxylic acid]: at most 1 µM; `Nc1cc(-n2cc(C(=O)O)c(=O)c3cc(Cl)c(N4CCC[C@@H]4COc4ncccc4Cl)cc32)ccn1` [Example 473, (R)-1-(2-aminopyridin-4-yl)-6-chloro-7-(2-(((3-chloropyridin-2-yl)oxy)methyl)pyrrolidin-1-yl)-4-oxo-1,4-dihydroquinoline-3-carboxylic acid]: at most 1 µM; `COc1ccc(Cl)c(OC[C@H]2[C@@H](OC)CCN2c2cc3c(cc2Cl)c(=O)c(C(=O)O)cn3-c2ccc(N3CC(N(C)C)C3)nc2)n1` [Example 684, 6-chloro-7-((2S,3S)-2-(((3-chloro-6-methoxypyridin-2-yl)oxy)methyl)-3-methoxypyrrolidin-1-yl)-1-(6-(3-(dimethylamino)azetidin-1-yl)pyridin-3-yl)-4-oxo-1,4-dihydroquinoline-3-carboxylic acid]: at most 1 µM.

For the origin of these results see US12662491B2 (Redona Therapeutics, Inc., priority 2020, dated 2026).
